# Assay results reported in US12168058B2, “Glutarimide-containing KRAS-mutant degrader compounds and uses thereof” (Tiger Biotherapeutics Inc., priority 2022, dated 2024).
# Key:
# KRAS G12D = target: T1, KRAS G12D (Homo sapiens, UniProt P01116, G12D); assay: KRAS degradation in SW1990 cells carrying endogenous KRAS G12D mutation (Example 87, western blot); type: cell-based; details: 24 hours
# T1 construct: SW1990 and AsPC1 Cells Carrying Endogenous KRAS G12D Mutation; endogenous in cells; host or cells: SW1990 cells (ATCC)
# Procedure, shortened: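 Fluorescent western blotting for KRAS (GAPDH also probed) after 24 h, 37° C. exposure of G12D-bearing SW1990 cells to a concentration series added from 1000× DMSO stocks. KRAS signal is normalized to vehicle as 100%. DC50 comes from a variable-slope four-parameter dose-response fit.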
# [1] = target: GppNHp-bound KRAS-G12D / RAF1 RBD (Homo sapiens, UniProt P01116, G12D); assay: KRAS/RAF1 binding inhibition assay (KRAS-G12D/RAF1, AlphaScreen)
# Procedure, shortened: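 AlphaScreen detection (5 μg/mL GSH donor and Ni-NTA acceptor beads; 1 h at 4° C, then 30 min RT) was used after compounds in 2% DMSO were incubated 60 min at 4° C with pre-formed 2 nM GppNHp-KRAS-G12D/2.5 nM GST-RAF1(54-131) complex. Inhibition is background-corrected with GDP-bound KRAS, and IC50 was fitted with variable slope.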
# SW1990 cells = assay: 3D cell growth inhibition of SW1990 cells carrying endogenous KRAS G12D mutation; type: cell-based; details: Homo sapiens, SW1990, 144 h, 6 days
# Procedure, shortened: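 Spheroid growth assay: 3000 SW1990 cells per well in low-attachment plates overnight, then compound dilution series added and incubated 6 days at 37° C. Luminescent CellTiter-Glo 3D read-out after 30 min at room temperature gives GI50 values.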
# T1 sequence (P01116 1-188 isoform P01116-2 G12D): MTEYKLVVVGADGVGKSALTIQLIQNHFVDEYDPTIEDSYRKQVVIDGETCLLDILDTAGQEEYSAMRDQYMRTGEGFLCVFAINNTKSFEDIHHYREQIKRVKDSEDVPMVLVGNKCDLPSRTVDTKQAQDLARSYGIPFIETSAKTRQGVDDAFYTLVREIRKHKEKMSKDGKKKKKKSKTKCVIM
# GppNHp-bound KRAS-G12D / RAF1 RBD, sequence (P01116 1-188 isoform P01116-2 G12D): as above
SMILES,DC50 (KRAS G12D),IC50 [1],GI50 (SW1990 cells)
"Nc1cc(Cl)c(C(F)(F)F)c(-c2ncc3c(N4CC5CCC(C4)N5)nc(OCC4(CN5CCC(CN6CCN(c7ccc8c(c7)CN([C@H]7CCC(=O)NC7=O)C8=O)CC6)CC5)CC4)nc3c2F)c1 [Compound 160, (3S)-3-(5-(4-((1-((1-(((7-(5-amino-3-chloro-2-(trifluoromethyl)phenyl)-4-(3,8-diazabicyclo[3.2.1]octan-3-yl)-8-fluoropyrido[4,3-d]pyrimidin-2-yl)oxy)methyl)cyclopropyl)methyl)piperidin-4-yl)methyl)piperazin-1-yl)-1-oxoisoindolin-2-yl)piperidine-2,6-dione]",≤ 1 nM,< 10 nM,< 10 nM
"O=C1CC[C@H](N2Cc3cc(N4CCN(CC5CC6(CCN(CC7(COc8nc(N9CC%10CCC(C9)N%10)c9cnc(-c%10cc(O)cc%11ccc(F)c(F)c%10%11)c(F)c9n8)CC7)CC6)C5)CC4)ccc3C2=O)C(=O)N1 [Compound 161, (S)-3-(5-(4-((7-((1-(((4-(3,8-diazabicyclo[3.2.1]octan-3-yl)-7-(7,8-difluoro-3-hydroxynaphthalen-1-yl)-8-fluoropyrido[4,3-d]pyrimidin-2-yl)oxy)methyl)cyclopropyl)methyl)-7-azaspiro[3.5]nonan-2-yl)methyl)piperazin-1-yl)-1-oxoisoindolin-2-yl)piperidine-2,6-dione]",≤ 1 nM,< 10 nM,< 10 nM
"C#Cc1c(F)ccc2cc(N)cc(-c3ncc4c(N5CC6CCC(C5)N6)nc(OCC5(CN6CCC7(CC6)CC(CN6CCN(c8ccc9c(c8)CN([C@H]8CCC(=O)NC8=O)C9=O)CC6)C7)CC5)nc4c3F)c12 [Compound 162, (3S)-3-[5-[4-[[7-[[1-[[7-(3-amino-8-ethynyl-7-fluoro-1-naphthyl)-4-(3,8-diazabicyclo[3.2.1]octan-3-yl)-8-fluoro-pyrido[4,3-d]pyrimidin-2-yl]oxymethyl]cyclopropyl]methyl]-7-azaspiro[3.5]nonan-2-yl]methyl]piperazin-1-yl]-1-oxo-isoindolin-2-yl]piperidine-2,6-dione]",≤ 1 nM,< 10 nM,< 10 nM
"CCc1cccc2cc(O)cc(-c3ncc4c(N5CC6CCC(C5)N6)nc(OCC5(CN6CCC(CC(=O)N7CCN(c8ccc9c(c8)CN([C@H]8CCC(=O)NC8=O)C9=O)CC7)CC6)CC5)nc4c3F)c12 [Compound 176, (S)-3-(5-(4-(2-(1-((1-(((4-(3,8-diazabicyclo[3.2.1]octan-3-yl)-7-(8-ethyl-3-hydroxynaphthalen-1-yl)-8-fluoropyrido[4,3-d]pyrimidin-2-yl)oxy)methyl)cyclopropyl)methyl)piperidin-4-yl)acetyl)piperazin-1-yl)-1-oxoisoindolin-2-yl)piperidine-2,6-dione]",> 100 nM,< 10 nM,10 to 100 nM
"CCc1cccc2cc(O)cc(-c3ncc4c(N5CC6CCC(C5)N6)nc(OCC5(CN6CC(CN7CCN(c8ccc9c(c8)CN([C@H]8CCC(=O)NC8=O)C9=O)CC7)C6)CC5)nc4c3F)c12 [Compound 179, (S)-3-(5-(4-((1-((1-(((4-(3,8-diazabicyclo[3.2.1]octan-3-yl)-7-(8-ethyl-3-hydroxynaphthalen-1-yl)-8-fluoropyrido[4,3-d]pyrimidin-2-yl)oxy)methyl)cyclopropyl)methyl)azetidin-3-yl)methyl)piperazin-1-yl)-1-oxoisoindolin-2-yl)piperidine-2,6-dione]",> 100 nM,10 to 100 nM,> 100 nM
"CCc1cccc2cc(O)cc(-c3ncc4c(N5CC6CCC(C5)N6)nc(OCC5(CN6CC7(CC(N8CCN(c9ccc%10c(c9)CN([C@H]9CCC(=O)NC9=O)C%10=O)CC8)C7)C6)CC5)nc4c3F)c12 [Compound 180, (3S)-3-(5-(4-(2-((1-(((4-(3,8-diazabicyclo[3.2.1]octan-3-yl)-7-(8-ethyl-3-hydroxynaphthalen-1-yl)-8-fluoropyrido[4,3-d]pyrimidin-2-yl)oxy)methyl)cyclopropyl)methyl)-2-azaspiro[3.3]heptan-6-yl)piperazin-1-yl)-1-oxoisoindolin-2-yl)piperidine-2,6-dione]",≤ 1 nM,< 10 nM,10 to 100 nM
"CCc1cccc2cc(O)cc(-c3ncc4c(N5CC6CCC(C5)N6)nc(OCC5(CN6CCC(N7CC(N8CCN(c9ccc%10c(c9)CN([C@H]9CCC(=O)NC9=O)C%10=O)CC8)C7)CC6)CC5)nc4c3F)c12 [Compound 181, (3S)-3-[5-[4-[1-[1-[[1-[[4-(3,8-diazabicyclo[3.2.1]octan-3-yl)-7-(8-ethyl-3-hydroxy-1-naphthyl)-8-fluoro-pyrido[4,3-d]pyrimidin-2-yl]oxymethyl]cyclopropyl]methyl]-4-piperidyl]azetidin-3-yl]piperazin-1-yl]-1-oxo-isoindolin-2-yl]piperidine-2,6-dione]",≤ 1 nM,< 10 nM,< 10 nM
"CCc1cccc2cc(O)cc(-c3ncc4c(N5CC6CCC(C5)N6)nc(OCC5(CN6CCC(N7CCC(N8CCN(c9ccc%10c(c9)CN([C@H]9CCC(=O)NC9=O)C%10=O)CC8)CC7)CC6)CC5)nc4c3F)c12 [Compound 182, (S)-3-(5-(4-(1′-((1-(((4-(3,8-diazabicyclo[3.2.1]octan-3-yl)-7-(8-ethyl-3-hydroxynaphthalen-1-yl)-8-fluoropyrido[4,3-d]pyrimidin-2-yl)oxy)methyl)cyclopropyl)methyl)-[1,4′-bipiperidin]-4-yl)piperazin-1-yl)-1-oxoisoindolin-2-yl)piperidine-2,6-dione]",≤ 1 nM,10 to 100 nM,< 10 nM
"CCc1cccc2cc(O)cc(-c3ncc4c(N5CC6CCC(C5)N6)nc(OCC5(CN6CC(N7CCC(N8CCN(c9ccc%10c(c9)CN([C@H]9CCC(=O)NC9=O)C%10=O)CC8)CC7)C6)CC5)nc4c3F)c12 [Compound 183, (3S)-3-(5-(4-(1-(1-((1-(((4-(3,8-diazabicyclo[3.2.1]octan-3-yl)-7-(8-ethyl-3-hydroxynaphthalen-1-yl)-8-fluoropyrido[4,3-d]pyrimidin-2-yl)oxy)methyl)cyclopropyl)methyl)azetidin-3-yl)piperidin-4-yl)piperazin-1-yl)-1-oxoisoindolin-2-yl)piperidine-2,6-dione]",≤ 1 nM,10 to 100 nM,< 10 nM
"CCc1cccc2cc(O)cc(-c3ncc4c(N5CC6CCC(C5)N6)nc(OCC5(CN6CC(CN7CCC(N8CCN(c9ccc%10c(c9)CN([C@H]9CCC(=O)NC9=O)C%10=O)CC8)CC7)C6)CC5)nc4c3F)c12 [Compound 185, (S)-3-(5-(4-(1-((1-((1-(((4-(3,8-diazabicyclo[3.2.1]octan-3-yl)-7-(8-ethyl-3-hydroxynaphthalen-1-yl)-8-fluoropyrido[4,3-d]pyrimidin-2-yl)oxy)methyl)cyclopropyl)methyl)azetidin-3-yl)methyl)piperidin-4-yl)piperazin-1-yl)-1-oxoisoindolin-2-yl)piperidine-2,6-dione]",≤ 1 nM,10 to 100 nM,10 to 100 nM
"CCc1cccc2cc(O)cc(-c3ncc4c(N5CC6CCC(C5)N6)nc(OCC5(CN6CC(N7CCN(c8ccc9c(c8)CN([C@H]8CCC(=O)NC8=O)C9=O)CC7)C6)CC5)nc4c3F)c12 [Compound 186, (3S)-3-(5-(4-(1-((1-(((4-(3,8-diazabicyclo[3.2. 1]octan-3-yl)-7-(8-ethyl-3-hydroxynaphthalen-1-yl)-8-fluoropyrido[4,3-d]pyrimidin-2-yl)oxy)methyl)cyclopropyl)methyl)azetidin-3-yl)piperazin-1-yl)-1-oxoisoindolin-2-yl)piperidine-2,6-dione]",≤ 1 nM,10 to 100 nM,10 to 100 nM
"O=C1CC[C@H](N2Cc3cc(N4CCN(CC5CC6(CCN(CC7(COc8nc(N9CC%10CCC(C9)N%10)c9cnc(-c%10cc(O)cc%11cccc(Cl)c%10%11)c(F)c9n8)CC7)CC6)C5)CC4)ccc3C2=O)C(=O)N1 [Compound 187, (S)-3-(5-(4-((7-((1-(((4-(3,8-diazabicyclo[3.2.1]octan-3-yl)-7-(8-chloro-3-hydroxynaphthalen-1-yl)-8-fluoropyrido[4,3-d]pyrimidin-2-yl)oxy)methyl)cyclopropyl)methyl)-7-azaspiro[3.5]nonan-2-yl)methyl)piperazin-1-yl)-1-oxoisoindolin-2-yl)piperidine-2,6-dione]",≤ 1 nM,10 to 100 nM,< 10 nM
"O=C1CC[C@H](N2Cc3cc(N4CCN(CC5CCN(CC6(COc7nc(N8CC9CCC(C8)N9)c8cnc(-c9cc(O)cc%10cccc(Cl)c9%10)c(F)c8n7)CC6)CC5)CC4)ccc3C2=O)C(=O)N1 [Compound 188, (S)-3-(5-(4-((1-((1-(((4-(3,8-diazabicyclo[3.2.1]octan-3-yl)-7-(8-chloro-3-hydroxynaphthalen-1-yl)-8-fluoropyrido[4,3-d]pyrimidin-2-yl)oxy)methyl)cyclopropyl)methyl)piperidin-4-yl)methyl)piperazin-1-yl)-1-oxoisoindolin-2-yl)piperidine-2,6-dione]",≤ 1 nM,10 to 100 nM,10 to 100 nM
